In experiment [1] the target is T1, NAMPT (Homo sapiens, UniProt P43490). In words: Time-Resolved Fluorescence Resonance Energy Transfer (TR-FRET) Binding Assay of NAMPT. Particulars: 6.8 nM NAMPT, 200 nM probe, equilibrated 3 hours, no substrates. The procedure, abridged: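 Compound was mixed with enzyme, probe and antibody and equilibrated 3 h at room temperature. TR-FRET read at Ex 337 nm, Em 520/495 nm. Ratios were normalized to controls and fitted to a four-parameter logistic equation for IC50.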
T1 sequence (P43490 whole entry): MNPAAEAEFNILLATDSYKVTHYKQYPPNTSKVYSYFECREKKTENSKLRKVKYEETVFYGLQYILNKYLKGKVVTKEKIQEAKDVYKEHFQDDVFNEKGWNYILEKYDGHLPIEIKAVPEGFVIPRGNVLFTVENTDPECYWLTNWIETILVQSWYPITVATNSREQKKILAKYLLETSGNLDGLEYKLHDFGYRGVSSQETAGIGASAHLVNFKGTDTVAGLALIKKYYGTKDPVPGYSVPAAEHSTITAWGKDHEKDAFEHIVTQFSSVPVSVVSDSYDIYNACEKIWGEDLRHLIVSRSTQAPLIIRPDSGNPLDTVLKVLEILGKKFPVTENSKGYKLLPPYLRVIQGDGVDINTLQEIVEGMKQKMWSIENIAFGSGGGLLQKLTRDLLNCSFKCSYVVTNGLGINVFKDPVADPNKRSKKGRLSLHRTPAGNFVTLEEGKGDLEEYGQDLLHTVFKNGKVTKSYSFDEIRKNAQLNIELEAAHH

For experiment [2], the target named is T1, NAMPT. In words: TR-FRET Binding Assay of NAMPT with PRPP. Particulars: 2 nM NAMPT, 2 nM probe, 200 µM PRPP and 2.5 mM ATP, equilibrated 16 hours. The procedure, abridged: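 TR-FRET probe displacement with 2 nM NAMPT, 2 nM probe and 1 nM Tb-anti-His antibody in the presence of 200 µM PRPP and 2.5 mM ATP, 2% DMSO (all final). Equilibrated 16 hours before reading to permit possible enzymatic modification of compounds.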

In experiment [3] the test system is PC3 cells. In words: NAMPT Cell Proliferation Assay (Cell Titer Glo). Particulars: Homo sapiens, PC-3, 120 h, incubated 5 days, cell viability. Type of experiment: cell-based. The method in brief:
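PC3 cells (500/well, RPMI with 10% heat-inactivated FBS) were exposed to 10-fold compound dilutions from […] for 5 days at 37 °C, 5% CO2. Viability was read with Cell Titer Glo; IC50 from sigmoidal fit of percent inhibition.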

Results on 11 compounds are retold here after US9296723B2, “NAMPT inhibitors” (AbbVie Inc., priority 2012, dated 2016).

`CC(C)(C)C(=O)N1CC(c2ccc(NC(=O)N3CC(c4cccnc4)C3)cc2)C1` [Example 206, N-{4-[1-(2,2-dimethylpropanoyl)azetidin-3-yl]phenyl}-3-(pyridin-3-yl)azetidine-1-carboxamide]: the IC50 is 49.1 nM in experiment [1], 0.26 nM in experiment [2] and 63.4 nM in experiment [3].

Consider `CC(C)CC(=O)N1CC(c2ccc(NC(=O)N3CC(c4cccnc4)C3)cc2)C1` [Example 208, N-{4-[1-(3-methylbutanoyl)azetidin-3-yl]phenyl}-3-(pyridin-3-yl)azetidine-1-carboxamide], for which the values for the half-maximal inhibitory concentration (IC50) in experiment [1], in experiment [2] and in experiment [3] were 48.6 nM, 0.473 nM and 73.7 nM, respectively.

With `COCCOCC(=O)N1CC(c2ccc(NC(=O)N3CC(c4cccnc4)C3)cc2)C1` [Example 210, N-(4-{1-[(2-methoxyethoxy)acetyl]azetidin-3-yl}phenyl)-3-(pyridin-3-yl)azetidine-1-carboxamide], the half-maximal inhibitory concentration (IC50) in experiment [1] came to 206 nM; in experiment [2], 0.356 nM; in experiment [3], 218 nM.

Regarding `O=C(CC1CCCCC1)N1CC(c2ccc(NC(=O)N3CC(c4cccnc4)C3)cc2)C1` [Example 212, N-{4-[1-(cyclohexylacetyl)azetidin-3-yl]phenyl}-3-(pyridin-3-yl)azetidine-1-carboxamide], the concentration for half-maximal inhibition (IC50) turned out to be 40.9 nM in experiment [1], 0.464 nM in experiment [2] and 20.6 nM in experiment [3].

On to `O=C(Nc1ccc(C2CN(C(=O)C3CCCC3)C2)cc1)N1CC(c2cccnc2)C1` [Example 214, N-{4-[1-(cyclopentylcarbonyl)azetidin-3-yl]phenyl}-3-(pyridin-3-yl)azetidine-1-carboxamide], for which the IC50 was found to be 75.8 nM in experiment [1], 0.289 nM in experiment [2] and 43.7 nM in experiment [3].

With `O=C(Nc1ccc(C2CN(C(=O)c3ccoc3)C2)cc1)N1CC(c2cccnc2)C1` [Example 216, N-{4-[1-(furan-3-ylcarbonyl)azetidin-3-yl]phenyl}-3-(pyridin-3-yl)azetidine-1-carboxamide], the results for the half-inhibitory concentration (IC50) in experiment [1], in experiment [2] and in experiment [3] were 18.4 nM, 0.256 nM and 20.5 nM, respectively.

For the compound `COCC(=O)N1CC(c2ccc(NC(=O)N3CC(c4cccnc4)C3)cc2)C1` [Example 218, N-{4-[1-(methoxyacetyl)azetidin-3-yl]phenyl}-3-(pyridin-3-yl)azetidine-1-carboxamide], the IC50 in experiment [1] was found to be 171 nM; in experiment [2], 0.451 nM; in experiment [3] it was 188 nM.

Consider `Cc1ccsc1C(=O)N1CC(c2ccc(NC(=O)N3CC(c4cccnc4)C3)cc2)C1` [Example 220, N-(4-{1-[(3-methylthiophen-2-yl)carbonyl]azetidin-3-yl}phenyl)-3-(pyridin-3-yl)azetidine-1-carboxamide], for which the results for the half-inhibitory concentration (IC50) in experiment [1], in experiment [2] and in experiment [3] were 10.4 nM, 0.34 nM and 4.15 nM, respectively.

Turning to `O=C(Nc1ccc(C2CN(C(=O)c3cccs3)C2)cc1)N1CC(c2cccnc2)C1` [Example 222, 3-(pyridin-3-yl)-N-{4-[1-(thiophen-2-ylcarbonyl)azetidin-3-yl]phenyl}azetidine-1-carboxamide], the IC50 in experiment [1] came out at 10.7 nM; in experiment [2] it was 0.183 nM; in experiment [3], 11.9 nM.

In the case of `O=C(Nc1ccc(C2CN(C(=O)c3ccco3)C2)cc1)N1CC(c2cccnc2)C1` [Example 224, N-{4-[1-(furan-2-ylcarbonyl)azetidin-3-yl]phenyl}-3-(pyridin-3-yl)azetidine-1-carboxamide], the IC50 is 26 nM in experiment [1], 0.333 nM in experiment [2] and 20.7 nM in experiment [3].

Consider `CCC(=O)N1CC(c2ccc(NC(=O)N3CC(c4cccnc4)C3)cc2)C1` [Example 226, N-[4-(1-propanoylazetidin-3-yl)phenyl]-3-(pyridin-3-yl)azetidine-1-carboxamide], for which the figures for the half-maximal inhibitory concentration (IC50) in experiment [1], in experiment [2] and in experiment [3] were 169 nM, 0.44 nM and 200 nM, respectively.
